How the values were obtained:
[1] = system: Boophilus microplus resistant (SP-resistant Parkhurst strain); assay: Test with Boophilus microplus resistant (SP-resistant Parkhurst strain), injection, oviposition of fertile eggs; type: in vivo
Experimental: (§1) Test with Boophilus Microplus Resistant (SP—Resistant Parkhurst Strain)
(§2) • Test animals: adult females which have sucked themselves full • Solvent: dimethyl sulphoxide
20 mg of active compound are dissolved in 1 ml of dimethyl sulphoxide, more dilute concentrations are prepared by dilution in the same solvent.
The test is carried out in 5 replications. 1 μl of the solutions is injected into the abdomen, and the animals are transferred into dishes and kept in a climatized room. After 7 days, the activity is checked by examination for oviposition of fertile eggs. Eggs whose fertility is not visible from the outside are stored in glass tubes in a controlled-environment cabinet until the larvae have hatched. An activity of 100% means that no tick has produced any fertile eggs.

[2] = system: adults of Ctenocephalides felis; assay: Test with cat fleas/oral uptake; type: in vivo; conditions: after 28 h
Experimental: Test with Cat Fleas/Oral Uptake
• Test animals: adults of Ctenocephalides felis • Solvent: dimethyl sulphoxide (DMSO)
To produce a suitable formulation, a suitable solution of active compound is prepared from 20 mg of active compound and 1 ml of DMSO. 15 μl of this formulation are added to 3 ml of citrated cattle blood and stirred.
10 unfed adult fleas (Ctenocephalides felis, strain “Georgi”) are placed into a chamber (Ø3.2 cm) whose top and bottom are closed with gauze. A metal cylinder whose underside is covered with parafilm is placed onto the chamber. The cylinder contains 3 ml of blood/active compound formulation which can be taken up by the fleas through the parafilm membrane. Whereas the blood is warmed to 37° C., the temperature in the area of the flea chambers is adjusted to 25° C. Controls are mixed with the same volume of DMSO, without addition of a compound. The determinations are carried out in triplicate.
After 28 h, the mortality in % (=dead fleas) is determined.
Compounds which effect an at least 25% kill of the fleas within 28 h are judged to be effective.

[3] = system: Lucilia cuprina larvae; assay: Blowfly larvae test (development-inhibitory action); type: in vivo
Experimental: Blowfly Larvae Test (Development-Inhibitory Action)
• Test animals: Lucilia cuprina larvae • Solvent: dimethyl sulphoxide
(§3) 20 mg of active compound are dissolved in 1 ml of dimethyl sulphoxide, more dilute concentrations are prepared by dilution with distilled water.
About 20 Lucilia cuprina larvae are introduced into a test tube which contains about 1 cm^3 of horse meat and 0.5 ml of the preparation of active compound to be tested. After 24 hours and 48 hours, the efficacy of the preparation of active compound is determined. The test tubes are transferred into a beaker whose bottom is covered with sand. After a further 2 days, the test tubes are removed and the pupae are counted.
The efficacy of the preparation of active compound is assessed by the number of flies that have hatched after 1.5 times the period of development of an untreated control. 100% means that no flies have hatched; 0% means that all flies have hatched normally.

[4] = system: Trichinella spiralis larvae; assay: Trichinella spiralis in-vitro; type: cell-based; parameters: key: 0 means no activity; 1 means weak activity; 2 means good activity; 3 means full activity; conditions: 5 days at 19° C.
Experimental: Trichinella spiralis In-vitro
• Test animals: Trichinella spiralis larvae • Solvent: dimethyl sulphoxide
Trichinella spiralis larvae are isolated from skeletal muscles and subcutaneous muscles of SPF/CFW1 mice and collected in aqueous 0.9% NaCl containing 20 μg of sisomycin/ml. Per determination, 20 larvae are incubated in 2 ml of a nutrient solution (20 g of Bacto Casitone/l, 10 g of yeast extract/l, 5 g of glucose/l, 0.8 g of KH2PO4/l, 0.8 g of K2HPO4; […] of sisomycin/ml and 1 μg of Canesten/ml; pH=7.2).
The incubation and the determination have been described in Martin et al., Pesticide Science (1996) 48, 343-349. 10 mg of the test compound are dissolved in 0.5 ml of the stated solvent, and such an amount of the resulting solution is added to the incubation medium that the desired concentration is reached. The controls contain only the solvent.
After an incubation time of 5 days at a temperature of 19° C., the experiment is terminated. The anthelmintic activity of a substance is categorized into 4 stages. 0 means no activity, 1 means weak activity, 2 means good activity and 3 means full activity (<50%, 50-75%, >75%, 100% of the larvae dead).

[5] = logP (pH2); type: physicochemical
[6] = system: Meloidogyne incognita egg/larvae; assay: Meloidogyne test; type: in vivo; conditions: active compound concentration 20 ppm; lettuce
Experimental: • Solvent: 8 parts by weight of acetone • Emulsifier: 1 part by weight of alkylaryl polyglycol ether
To produce a suitable preparation of active compound, 1 part by weight of active compound is mixed with the stated amounts of solvent and emulsifier, and the concentrate is diluted with water to the desired concentration.
Containers are filled with sand, solution of active compound, Meloidogyne incognita egg/larvae suspension and lettuce seeds. The lettuce seeds germinate and the plants develop. On the roots, galls are formed.
After the desired period of time, the nematicidal action is determined in % using gall formation as a measure. 100% means that no galls were found; 0% means that the number of galls on the treated plants corresponds to that of the untreated control.

[7] = system: caterpillars of the army worm (Spodoptera frugiperda); assay: Spodoptera frugiperda test; type: in vivo; conditions: active compound concentration 0.1%; after 7 days
Experimental: Spodoptera frugiperda Test
(§4) • Solvent: 30 parts by weight of dimethylformamide • Emulsifier: 1 part by weight of alkylaryl polyglycol ether
(§5) To produce a suitable preparation of active compound, 1 part by weight of active compound is mixed with the stated amounts of solvent and emulsifier, and the concentrate is diluted with emulsifier-containing water to the desired concentration.
Cabbage leaves (Brassica oleracea) are treated by being dipped into the preparation of active compound of the desired concentration and are populated with caterpillars of the army worm (Spodoptera frugiperda) while the leaves are still moist.
After the desired period of time, the kill in % is determined. 100% means that all caterpillars have been killed; 0% means that none of the caterpillars have been killed.

[8] = system: peach aphid (Myzus persicae); assay: Myzus test; type: in vivo; conditions: active compound concentration 0.1%; after 6 days
Experimental: as §4, §5
Cabbage leaves (Brassica oleracea) which are heavily infested by the peach aphid (Myzus persicae) are treated by being dipped into the preparation of active compound of the desired concentration.
After the desired period of time, the kill in % is determined. 100% means that all aphids have been killed; 0% means that none of the aphids have been killed.

[9] = system: adult Musca domestica, Reichswald strain (OP, SP, carbamate-resistant); assay: Test with flies (Musca domestica); type: in vivo; conditions: active compound concentration 100 ppm
Experimental: Test with Flies (Musca domestica)
• Test animals: adult Musca domestics, Reichswald strain (OP, SP, carbamate-resistant) • Solvent: dimethyl sulphoxide
as §3
2 ml of this active compound preparation are pipetted onto filter paper discs (Ø9.5 cm) in petri dishes of corresponding dimensions. After the filter discs have been dried, 25 test animals are transferred into the petri dishes, which are then covered.
After 1, 3, 5, 24 and 48 hours, the activity of the active compound preparation is determined. 100% means that all flies have been killed; 0% means that none of the flies have been killed.

[10] = system: Boophilus microplus resistant (SP-resistant Parkhurst strain); assay: Test with Boophilus microplus resistant (SP-resistant Parkhurst strain), dipping; type: in vivo; conditions: active compound concentration 100 ppm; dipped for 1 minute
Experimental: as §1, §2, §3
10 adult Boophilus microplus res. are dipped for 1 minute into the preparation of active compound to be tested. The animals are transferred into plastic beakers and kept in a climatized room, and the kill rate is then determined.
100% means that all ticks have been killed; 0% means that none of the ticks have been killed.

[11] = system: larvae of the mustard beetle (Phaedon cochleariae); assay: Phaedon larvae test; type: in vivo; conditions: active compound concentration 0.1%; after 7 days
Experimental: as §4, §5
Cabbage leaves (Brassica oleracea) are treated by being dipped into the preparation of active compound of the desired concentration and are populated with larvae of the mustard beetle (Phaedon cochleariae) while the leaves are still moist.
After the desired period of time, the kill in % is determined. 100% means that all beetle larvae have been killed; 0% means that none of the beetle larvae have been killed.

[12] = system: greenhouse red spider mite (Tetranychus urticae); assay: Tetranychus test (OP-resistant/dip treatment); type: in vivo; conditions: active compound concentration 0.1%; after 7 days
Experimental: Tetranychus Test (OP-Resistant/Dip Treatment)
as §4, §5
Bean plants (Phaseolus vulgaris) which are heavily infested by all stages of the greenhouse red spider mite (Tetranychus urticae) are dipped into a preparation of active compound of the desired concentration.
After the desired period of time, the effect in % is determined. 100% means that all spider mites have been killed; 0% means that none of the spider mites have been killed.

[13] = 0.8 μg per animal, injection, after 7 days
[14] = 4 μg per animal, injection, after 7 days
[15] = 20 μg per animal, injection, after 7 days
[16] = active compound concentration 100 ppm
[17] = active compound concentration 20 ppm
[18] = active compound concentration 4 ppm, injection, after 7 days
[19] = active compound concentration 20 ppm, injection, after 7 days

| Structure (SMILES) | kill (no fertile eggs) [1, 13] | kill (no fertile eggs) [1, 14] | kill (no fertile eggs) [1, 15] | kill (no fertile eggs) [1, 16] | kill (mortality) [2, 17] | kill (mortality) [2, 16] | kill (no flies hatched) [3, 16] | anthelmintic activity class (larvae dead) [4, 16] | logP (pH2) [5] | kill (no fertile eggs) [1, 18] | kill (no fertile eggs) [1, 19] | further results |
| --- | --- | --- | --- | --- | --- | --- | --- | --- | --- | --- | --- | --- |
| CC1SC(SCCC=C(F)F)=NS1(=O)=O (racemic) [Example 8] | 100% | 100% | 100% | 100% | 79% | 91% | 100% | no activity |  |  |  |  |
| CC1SC(SCCCCC(F)=C(F)F)=NS1(=O)=O (racemic) [Example 9] |  |  |  |  |  |  |  |  | 3.24 |  |  |  |
| CC1SC(SCCCCC=C(F)F)=NS1(=O)=O (racemic) [Example 10] | 100% | 100% | 100% | 100% | 83% | 95% | 100% | no activity | 3.31 |  |  |  |
| O=S1(=O)CSC(SCCC(F)=C(F)F)=N1 [Example 1, 5-(4,4,3-trifluorobutenylthio)-1,3,4-dithiazoline 3,3-dioxide] |  |  |  |  |  |  | 100% |  |  | 100% | 100% | kill (no flies hatched) [3, 17]: 100%; nematicidal action (activity) using gall formation as a measure [6]: 100%; melting point: 50 °C |
| O=S1(=O)CSC(SCCC=C(F)F)=N1 [Example 2] |  |  |  |  |  | 100% |  |  | 2.24 | 100% | 100% | kill [7]: 100%; kill [8]: 100%; kill [9]: 60%; nematicidal action (activity) using gall formation as a measure [6]: 100%; kill [10]: 90%; kill [11]: 100% |
| O=S1(=O)CSC(SCCCCC(F)=C(F)F)=N1 [Example 3] |  |  |  |  |  |  | 100% |  | 2.93 | 100% | 100% | kill (no flies hatched) [3, 17]: 100%; anthelmintic activity class (larvae dead) ([4]; active compound concentration 10 ppm): weak activity (1 means weak activity) |
| O=S1(=O)CSC(SCCCCC=C(F)F)=N1 [Example 4] |  |  |  |  |  | 100% |  | no activity | 2.99 | 100% | 100% | kill [12]: 100%; kill [8]: 100%; kill [9]: 40%; kill [10]: 100%; kill [11]: 100% |
| O=S1(=O)CCSC(SCCCCC=C(F)F)=N1 [Example 6] | 100% | 100% | 100% | 100% | 73% | 95% | 100% | no activity |  |  |  |  |
| O=S1(=O)CCSC(SCCC=C(F)F)=N1 [Example 11] | 100% | 100% | 100% |  |  |  |  | no activity |  |  |  |  |
| O=S1(=O)CCCSC(SCCC(F)=C(F)F)=N1 [Example 13] | 100% | 100% | 100% |  |  |  |  |  |  |  |  |  |
| O=S1(=O)CCCSC(SCCCCC=C(F)F)=N1 [Example 16] | 100% | 100% | 100% | 100% | 89% | 91% |  | no activity |  |  |  |  |

Source: patent US6927215B2, “Heterocyclic fluoroalkenyl thioethers and the use thereof as pesticides (I)” (Bayer Cropscience AG, priority 2000, dated 2005)
